Experimental data published in paper PMC10373466 (ACS Omega, 2023).

Tested on: not listed separately
Test: In vitro hepatotoxicity MTT assay
Settings: human

Row | SMILES | IC50 at 24 h [µM]
1 | Nc1c2c(nc3ccccc13)CCCC2 [Tacrine, reference compound] | 17.5 ± 1.1
2 | COc1cccc2c1C(=O)c1c(O)c3c(c(O)c1C2=O)C[C@@](O)(C(=O)CO)C[C@@H]3O[C@H]1C[C@H](N)[C@H](O)[C@H](C)O1 [Doxorubicin, reference compound] | 4.5 ± 0.2

Biological target: Aβ1–42 (Homo sapiens, UniProt P05067)
Test: Self-induced Aβ1–42 aggregation inhibition
Format: biochemical
Settings: read-out: Aβ1–42 (% inhibition at 10 μM)

Aβ1–42, sequence (P05067 672-713): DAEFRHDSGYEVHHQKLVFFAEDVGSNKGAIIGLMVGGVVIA

Row | SMILES | inhibition at 10 µM [%]
3 | COc1cc(/C=C/C(=O)CC(=O)/C=C/c2ccc(O)c(OC)c2)ccc1O [Curcumin, reference compound] | 44

Biological target: hAChE (Homo sapiens, UniProt P22303)
Test: In vitro AChE inhibition assay
Format: biochemical
Settings: in vitro AChE inhibition IC50 ± SD, Ellman method, n = 3

hAChE, sequence (P22303 32-614): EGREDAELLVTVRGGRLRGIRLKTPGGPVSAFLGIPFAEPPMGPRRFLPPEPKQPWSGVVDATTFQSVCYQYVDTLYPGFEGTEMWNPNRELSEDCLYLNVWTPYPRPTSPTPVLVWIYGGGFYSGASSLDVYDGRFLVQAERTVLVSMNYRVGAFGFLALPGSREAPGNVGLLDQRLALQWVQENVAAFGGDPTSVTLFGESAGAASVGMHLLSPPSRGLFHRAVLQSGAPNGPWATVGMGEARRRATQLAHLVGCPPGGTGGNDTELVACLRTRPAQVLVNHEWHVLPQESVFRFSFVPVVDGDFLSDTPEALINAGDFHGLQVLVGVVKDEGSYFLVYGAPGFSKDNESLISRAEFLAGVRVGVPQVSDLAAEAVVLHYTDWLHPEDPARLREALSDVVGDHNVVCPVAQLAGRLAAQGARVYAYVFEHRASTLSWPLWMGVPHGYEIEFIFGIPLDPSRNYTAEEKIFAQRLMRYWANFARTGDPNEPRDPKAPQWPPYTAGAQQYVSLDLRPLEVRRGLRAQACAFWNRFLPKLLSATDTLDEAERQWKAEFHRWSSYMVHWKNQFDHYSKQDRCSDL

Row | SMILES | IC50 [µM]
4 | COc1ccccc1C1c2ccc(OCC(=O)c3ccc(Cl)cc3)cc2Oc2nc3c(c(N)c21)CCCC3 (centres unmarked) [5e, 2-[11-Amino-12-(2-methoxyphenyl)-7,9,10,12-tetrahydro-8H-chromeno[2,3-b]quinolin-3-yl]oxy-1-(4-chlorophenyl)ethan-1-one] | 0.75 ± 0.04
5 | COc1cccc(C2c3ccc(OS(=O)(=O)c4ccccc4)cc3Oc3nc4c(c(N)c32)CCCC4)c1 (centres unmarked) [4q, 11-Amino-12-(3-methoxyphenyl)-7,9,10,12-tetrahydro-8H-chromeno[2,3-b]quinolin-3-yl-benzenesulfonate] | 2.45 ± 0.12
6 | Nc1c2c(nc3c1C(c1cccc(Br)c1)c1ccc(OS(=O)(=O)c4ccc(F)cc4)cc1O3)CCCC2 (centres unmarked) [4a, 11-Amino-12-(3-bromophenyl)-7,9,10,12-tetrahydro-8H-chromeno[2,3-b]quinolin-3-yl-4-fluorobenzenesulfonate] | 3.88 ± 0.21
7 | Nc1c2c(nc3c1C(c1ccc(Cl)c(Cl)c1)c1ccc(OS(=O)(=O)c4ccccc4)cc1O3)CCCC2 (centres unmarked) [4s, 11-Amino-12-(3,4-dichlorophenyl)-7,9,10,12-tetrahydro-8H-chromeno[2,3-b]quinolin-3-yl-benzenesulfonate] | 9.69 ± 0.49
8 | COc1ccccc1C1c2ccc(OS(=O)(=O)c3ccccc3)cc2Oc2nc3c(c(N)c21)CCCC3 (centres unmarked) [4t, 11-Amino-12-(2-methoxyphenyl)-7,9,10,12-tetrahydro-8H-chromeno[2,3-b]quinolin-3-yl-benzenesulfonate] | 24 ± 1.21
9 | COc1ccc(S(=O)(=O)Oc2ccc3c(c2)Oc2nc4c(c(N)c2C3c2cccc([N+](=O)[O-])c2)CCCC4)cc1 (centres unmarked) [4h, 11-Amino-12-(3-nitrophenyl)-7,9,10,12-tetrahydro-8H-chromeno[2,3-b]quinolin-3-yl-4-methoxybenzenesulfonate] | 1.53 ± 0.07
10 | Cc1ccc(S(=O)(=O)Oc2ccc3c(c2)Oc2nc4c(c(N)c2C3c2cccc(Br)c2)CCCC4)cc1 (centres unmarked) [4k, 11-Amino-12-(3-bromophenyl)-7,9,10,12-tetrahydro-8H-chromeno[2,3-b]quinolin-3-yl-4-methylbenzenesulfonate] | 9.35 ± 0.4
11 | COc1cccc(C2c3ccc(OS(=O)(=O)c4ccc(F)cc4)cc3Oc3nc4c(c(N)c32)CCCC4)c1 (centres unmarked) [4b, 11-Amino-12-(3-methoxyphenyl)-7,9,10,12-tetrahydro-8H-chromeno[2,3-b]quinolin-3-yl-4-fluorobenzenesulfonate] | 13.5 ± 0.72
12 | Nc1c2c(nc3c1C(c1ccc(Cl)c(Cl)c1)c1ccc(OS(=O)(=O)c4ccc(F)cc4)cc1O3)CCCC2 (centres unmarked) [4d, 11-Amino-12-(3,4-dichlorophenyl)-7,9,10,12-tetrahydro-8H-chromeno[2,3-b]quinolin-3-yl-4-fluorobenzenesulfonate] | 6.09 ± 0.32
13 | Nc1c2c(nc3c1C(c1cccc(Br)c1)c1ccc(OCC(=O)c4ccccc4)cc1O3)CCCC2 (centres unmarked) [5f, 2-[11-Amino-12-(3-bromophenyl)-7,9,10,12-tetrahydro-8H-chromeno[2,3-b]quinolin-3-yl]oxy-1-phenylethan-1-one] | 1.14 ± 0.054
14 | Cc1ccc(S(=O)(=O)Oc2ccc3c(c2)Oc2nc4c(c(N)c2C3c2cccc([N+](=O)[O-])c2)CCCC4)cc1 (centres unmarked) [4m, 11-Amino-12-(3-nitrophenyl)-7,9,10,12-tetrahydro-8H-chromeno[2,3-b]quinolin-3-yl-4-methylbenzenesulfonate] | 11.1 ± 0.48
15 | Nc1c2c(nc3c1C(c1cccc([N+](=O)[O-])c1)c1ccc(OCC(=O)c4ccccc4)cc1O3)CCCC2 (centres unmarked) [5h, 2-[11-Amino-12-(3-nitrophenyl)-7,9,10,12-tetrahydro-8H-chromeno[2,3-b]quinolin-3-yl]oxy-1-phenylethan-1-one] | 10.2 ± 0.48
16 | COc1ccc(S(=O)(=O)Oc2ccc3c(c2)Oc2nc4c(c(N)c2C3c2ccccc2OC)CCCC4)cc1 (centres unmarked) [4j, 11-Amino-12-(2-methoxyphenyl)-7,9,10,12-tetrahydro-8H-chromeno[2,3-b]quinolin-3-yl-4-methoxybenzenesulfonate] | 5.16 ± 0.22
17 | COc1ccccc1C1c2ccc(OS(=O)(=O)c3ccc(C)cc3)cc2Oc2nc3c(c(N)c21)CCCC3 (centres unmarked) [4o, 11-Amino-12-(2-methoxyphenyl)-7,9,10,12-tetrahydro-8H-chromeno[2,3-b]quinolin-3-yl-4-methylbenzenesulfonate] | 1.03 ± 0.04
18 | COc1cccc(C2c3ccc(OCC(=O)c4ccccc4)cc3Oc3nc4c(c(N)c32)CCCC4)c1 (centres unmarked) [5g, 2-[11-Amino-12-(3-methoxyphenyl)-7,9,10,12-tetrahydro-8H-chromeno[2,3-b]quinolin-3-yl]oxy-1-phenylethan-1-one] | 31 ± 1.47
19 | COc1cccc(C2c3ccc(O)cc3Oc3nc4c(c(N)c32)CCCC4)c1 (centres unmarked) [3b, 11-Amino-12-(3-methoxyphenyl)-7,9,10,12-tetrahydro-8H-chromeno[2,3-b]quinolin-3-ol] | 26.7 ± 1.42
20 | COc1ccccc1C1c2ccc(OS(=O)(=O)c3ccc(F)cc3)cc2Oc2nc3c(c(N)c21)CCCC3 (centres unmarked) [4e, 11-Amino-12-(2-methoxyphenyl)-7,9,10,12-tetrahydro-8H-chromeno[2,3-b]quinolin-3-yl-4-fluorobenzenesulfonate] | 22.4 ± 1.19
21 | Nc1c2c(nc3c1C(c1cccc([N+](=O)[O-])c1)c1ccc(OS(=O)(=O)c4ccccc4)cc1O3)CCCC2 (centres unmarked) [4r, 11-Amino-12-(3-nitrophenyl)-7,9,10,12-tetrahydro-8H-chromeno[2,3-b]quinolin-3-yl-benzenesulfonate] | 5.5 ± 0.28
22 | Nc1c2c(nc3c1C(c1ccc(Cl)c(Cl)c1)c1ccc(O)cc1O3)CCCC2 (centres unmarked) [3d, 11-Amino-12-(3,4-dichlorophenyl)-7,9,10,12-tetrahydro-8H-chromeno[2,3-b]quinolin-3-ol] | 5.31 ± 0.28
23 | COc1cccc(C2c3ccc(OS(=O)(=O)c4ccc(C)cc4)cc3Oc3nc4c(c(N)c32)CCCC4)c1 (centres unmarked) [4l, 11-Amino-12-(3-methoxyphenyl)-7,9,10,12-tetrahydro-8H-chromeno[2,3-b]quinolin-3-yl-4-methylbenzenesulfonate] | 2.62 ± 0.11
24 | COc1cccc(C2c3ccc(OCC(=O)c4ccc(Cl)cc4)cc3Oc3nc4c(c(N)c32)CCCC4)c1 (centres unmarked) [5b, 2-[11-Amino-12-(3-methoxyphenyl)-7,9,10,12-tetrahydro-8H-chromeno[2,3-b]quinolin-3-yl]oxy-1-(4-chlorophenyl)ethan-1-one] | 6.01 ± 0.3
25 | Nc1c2c(nc3c1C(c1cccc([N+](=O)[O-])c1)c1ccc(O)cc1O3)CCCC2 (centres unmarked) [3c, 11-Amino-12-(3-nitrophenyl)-7,9,10,12-tetrahydro-8H-chromeno[2,3-b]quinolin-3-ol] | 15.1 ± 0.8
26 | Nc1c2c(nc3c1C(c1cccc(Br)c1)c1ccc(OCC(=O)c4ccc(Cl)cc4)cc1O3)CCCC2 (centres unmarked) [5a, 2-[11-Amino-12-(3-bromophenyl)-7,9,10,12-tetrahydro-8H-chromeno[2,3-b]quinolin-3-yl]oxy-1-(4-chlorophenyl)ethan-1-one] | 0.99 ± 0.05
27 | COc1ccccc1C1c2ccc(O)cc2Oc2nc3c(c(N)c21)CCCC3 (centres unmarked) [3e, 11-Amino-12-(2-methoxyphenyl)-7,9, 10, 12-tetrahydro-8H-chromeno[2,3-b]quinolin-3-ol] | 5.88 ± 0.31
28 | COc1ccccc1C1c2ccc(OCC(=O)c3ccccc3)cc2Oc2nc3c(c(N)c21)CCCC3 (centres unmarked) [5j, 2-[11-Amino-12-(2-methoxyphenyl)-7,9,10,12-tetrahydro-8H-chromeno[2,3-b]quinolin-3-yl]oxy-1-phenylethan-1-one] | 2.48 ± 0.12
29 | COc1ccc(S(=O)(=O)Oc2ccc3c(c2)Oc2nc4c(c(N)c2C3c2cccc(Br)c2)CCCC4)cc1 (centres unmarked) [4f, 11-Amino-12-(3-bromophenyl)-7,9,10,12-tetrahydro-8H-chromeno[2,3-b]quinolin-3-yl-4-methoxybenzenesulfonate] | 0.73 ± 0.03
30 | Nc1c2c(nc3c1C(c1cccc(Br)c1)c1ccc(OS(=O)(=O)c4ccccc4)cc1O3)CCCC2 (centres unmarked) [4p, 11-Amino-12-(3-bromophenyl)-7,9,10,12-tetrahydro-8H-chromeno[2,3-b]quinolin-3-yl-benzenesulfonate] | 1.34 ± 0.07
31 | COc1ccc(S(=O)(=O)Oc2ccc3c(c2)Oc2nc4c(c(N)c2C3c2ccc(Cl)c(Cl)c2)CCCC4)cc1 (centres unmarked) [4i, 11-Amino-12-(3,4-dichlorophenyl)-7,9,10,12-tetrahydro-8H-chromeno[2,3-b]quinolin-3-yl-4-methoxybenzenesulfonate] | 2.2 ± 0.1
32 | Nc1c2c(nc3c1C(c1cccc(Br)c1)c1ccc(O)cc1O3)CCCC2 (centres unmarked) [3a, 11-Amino-12-(3-bromophenyl)-7,9,10,12-tetrahydro-8H-chromeno[2,3-b]quinolin-3-ol] | 3.48 ± 0.19
